# From EP4696691A1, “TRICYCLIC COMPOUND, AND PREPARATION METHOD THEREFOR AND USE THEREOF” (Shanghai Huilun Pharmaceutical Co., Ltd., priority 2023, dated 2024)
# Like-named read-outs stand apart in the source and are kept apart here.
# What was measured:
# [1] = target: T1, IRAK4-HiBiT fusion protein (Homo sapiens, UniProt Q9NWZ3); assay: Detection of HiBiT-IRAK4 proteolysis levels in K562 IRAK4-HiBiT cells (Nano-Glo HiBiT Lytic assay); format: cell-based
# T1 construct: K562 from ATCC
# T1 sequence (Q9NWZ3 1-460): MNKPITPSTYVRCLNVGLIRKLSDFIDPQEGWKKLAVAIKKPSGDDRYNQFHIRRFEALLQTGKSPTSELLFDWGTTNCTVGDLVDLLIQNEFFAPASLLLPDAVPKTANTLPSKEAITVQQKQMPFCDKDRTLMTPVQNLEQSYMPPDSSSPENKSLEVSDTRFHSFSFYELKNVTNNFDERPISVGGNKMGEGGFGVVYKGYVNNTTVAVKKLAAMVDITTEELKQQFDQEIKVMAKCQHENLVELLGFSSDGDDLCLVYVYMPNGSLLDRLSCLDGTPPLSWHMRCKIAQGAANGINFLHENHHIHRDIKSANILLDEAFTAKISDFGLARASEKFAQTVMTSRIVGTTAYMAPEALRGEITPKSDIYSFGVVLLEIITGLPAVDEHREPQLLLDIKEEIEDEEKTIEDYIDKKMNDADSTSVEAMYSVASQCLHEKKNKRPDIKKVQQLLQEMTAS
# Experimental: Test Example 1 Detection of HiBiT-IRAK4 proteolysis levels in K562 IRAK4-HiBiT cells co-incubated with compounds of the present application • Reagents, devices, and consumables in experiments: • Nano-Glo Lytic Detection Assay, purchased from Promega; • EnVision, purchased from PerkinElmer; • Name of cell line: K562 IRAK4-HiBiT stable transformation cell strain (capable of stably expressing IRAK4-HiBiT fusion protein), constructed by Shanghai Bioduro Biologics Co., Ltd., where a K562 cell strain was purchased from ATCC. The culture medium is IMDM+10% FBS+1% P/S (volume percentage, where FBS is fetal bovine serum and P/S is Penicillin-Streptomycin, a 1:1 mixture of penicillin and streptomycin antibiotic solution (10,000 units/mL)).
# Cell culture: K562 IRAK4-HiBiT cells were incubated at 37°C, and passaged every 2-3 d, with a seeding density of 200,000 cells/mL.
# IRAK4-HiBiT proteolysis experiment: • Step 1: Cell seeding and treatment of compound • 1. A 10 mM compound mother liquor was prepared using DMSO, and a compound solution with a working concentration of 1,000 times (the highest working concentration is 10 µM, diluted 3.162 times, with a total of 10 concentration gradients) was prepared using Bravo automatic liquid processing platform. • 2. 40 nL of a compound working solution was transferred to a 384 well plate, and an equal volume of DMSO was added to positive control wells. • 3. 20 µL of a culture solution was added per well and shaken for 10 min. • 4.20 µL of a K562 IRAK4-HiBiT cell suspension was added per well (6,000 cells/well), and an equal volume of culture medium was added to negative control wells. • 5. The well plate was rotated at 1,000 rpm for 1 min. • 6. The cells were incubated in a 5% CO2 incubator at 37°C for 2 h or 6 h. • Step 2: HiBiT Lytic experiment • 1. The well plate was placed at room temperature to equilibrate for 30 min. • 2. 20 µL of Nano-Glo HiBiT Lytic reagent (trade name: Nano-Glo® HiBiT Lytic Detection Reagent) and the well plate was kept in the dark. • 3. The well plate was placed on an orbital shaker at 300 rpm for 5 min. • 4. The cells were incubated at room temperature for 10 min. • 5. The luminous value was read by Envision. • 6. Data was calculated and processed. Degradation degree%=(negative control - experimental well)/(negative control - positive control) * 100%. Using XL-fit software, a degradation curve was obtained by fitting using a 4 Parameter Logistic Model, and the values of Relative DC50 (nM) and Absolute DC50 (nM) were obtained.
# [2] = tested on: LPS induced IL-6 release in human PBMC cells; assay: Inhibition of LPS induced IL-6 release in human PBMC cells (IL-6 HTRF assay); format: cell-based; details: 2 h compound pre-incubation, LPS 5 ng/mL for 4 h, IL-6 in supernatant
# Experimental: I. Recovery and seeding of PBMC, and treatment of compounds (human PBMC cells were purchased from Oricell, item number: Fpb003F)
# • 1. Preparation of compounds Sample dilutions of a series of concentrations were obtained by dilution in DMSO using Bravo, and then 80 nL was transferred into a cell plate using ECHO. The final concentration of DMSO in the cell culture medium is 0.1%. • 2. Frozen cells were quickly thawed in a 37°C water bath and stirred continuously. • 3. 25 mL of fresh preheated culture medium was added into a 50 mL centrifuge tube, and then the cells were added dropwise. Then the cells were centrifuged at 2,000 rpm for 10 min. • 4. […] The total number of cells required was calculated based on cell concentration to perform the assay. 7×10e4 cells were added per well (70 µL). • 6. The cell plate was placed and incubated in a 5% CO2 incubator at 37°C for 2 h.
# • 1. LPS: A stock solution (1 mg/mL) was diluted in dH2O, aliquoted, and stored at -80°C. • 2. 8-fold LPS was added per well (10 µl/well) (with a final concentration of 5 ng/mL). The cells were incubated in a 5% CO2 incubator at 37°C for 4 h. • 3. 70 µl of supernatant was collected per well using Bravo, and then IL-6 HTRF assay was performed. The supernatant may be stored at -80°C.
# 1. Preparation of standards and sample dilutions. 2. 16 µL of each sample was taken using Bravo and added to wells. Then 16 µL of each standard was taken and added to corresponding wells. 3.4 µL of a premixed IL6 antibody working solution was added to each of all wells. 4. The cell plate was sealed and incubated at room temperature for 2 h. 5.
# [3] = Pharmacokinetic behavior in mice (plasma concentration by LC-MS/MS); format: in vivo; details: male ICR mice; for Vd: read-out: Vss
# Experimental: Three healthy ICR mice (SPF grade, from Beijing Vital River Laboratory Animal Technology Co., Ltd.), male, weighing 18-25 g, were intravenously injected with a compound (1 mg/kg) at a volume of 5 mL/kg. The compound was prepared using 5% DMSO+10% Solutol+85% Saline (w/v), and the animals were not fasted before the experiment.
# Three healthy ICR mice (SPF grade, from Beijing Vital River Laboratory Animal Technology Co., Ltd.), male, weighing 18-25 g, were intragastrically administered a compound (5 mg/kg) at a volume of 10 mL/kg. The compound was prepared using 5% DMSO+10% Solutol+85% Saline (w/v), and the animals were not fasted before the experiment.
# Blood samples (about 0.05 mL each) were collected from the cheeks at 5 min, 15 min, 30 min, 1 h, 2 h, 4 h, 6 h, 8 h, and 24 h after intravenous administration, and at 5 min, 15 min, 30 min, 1 h, 2 h, 4 h, 6 h, 8 h, and 24 h after intragastrical administration, and anticoagulated with heparin sodium. Following collection, the blood samples were placed on ice and the plasma was centrifuged within 1 h (centrifugation conditions: 6,000 g, 3 min, 2 °C to 8°C). The concentration of the compounds in the plasma was determined by liquid chromatography tandem mass spectrometry. The plasma samples were stored in a -80°C freezer before analysis. With plasma concentration data at different time points, pharmacokinetic parameters were calculated by Phoenix WinNonlin8.2.0, and the results are shown in Table 4: Table 4
# [4] = 2 h incubation, read-out: Absolute DC50
# [5] = 2 h incubation, read-out: Relative DC50
# [6] = Intragastric administration (5 mg/kg)
# [7] = Intravenous injection (1 mg/kg)
# [8] = 6 h incubation, read-out: Absolute DC50
# [9] = 6 h incubation, read-out: Relative DC50
# [10] = mouse, plasma, po, Intragastric administration (5 mg/kg)
# [11] = mouse, plasma, po, Intragastric administration (5 mg/kg), read-out: Cmax
# [12] = mouse, plasma, Intravenous injection (1 mg/kg)
# [13] = mouse, plasma, Intravenous injection (1 mg/kg), read-out: Cmax
Structure (SMILES),Dmax ([1]; 2 h incubation) [%],"DC50 [1, 4] [pM]","DC50 [1, 5] [pM]",IC50 [2] [pM],Dmax ([1]; 6 h incubation) [%],"DC50 [1, 8] [pM]","DC50 [1, 9] [pM]",other results
CC(C)(O)c1cc2nn([C@H]3CC[C@H](CCN4CCN5c6ccc(C7CCC(=O)NC7=O)cc6OC[C@H]5C4)CC3)cc2cc1NC(=O)c1cccc(C(F)(F)F)n1 (some centres unmarked) [Compound 1-b],88,540,710,860,–,–,–,"AUClast [3, 6]: 44547 ng·h/mL; Cmax [3, 6]: 2623 ng/mL; F% [3, 6]: 79.5%; T1/2 [3, 6]: 15.3 h; AUClast [3, 7]: 11208 ng·h/mL; CL [3, 7]: 1.0 mL/min/kg; Cmax [3, 7]: 1083 ng/mL; Vss [3, 7]: 1.23 L/kg"
CC(C)Oc1cc2nc([C@H]3CC[C@H](CCN4CCN5c6ccc(C7CCC(=O)NC7=O)cc6OCC5C4)CC3)cn2cc1C(=O)Nc1cnn2cccnc12 (some centres unmarked) [Compound 100],89,17600,17600,640,–,–,–,–
CC(C)(O)c1cc2nn([C@H]3CC[C@H](CCN4CCC5(CC4)OCc4cc(C6CCC(=O)NC6=O)ccc45)CC3)cc2cc1NC(=O)c1cccc(C(F)(F)F)n1 (some centres unmarked) [Compound 47],–,–,–,520,93,650,540,–
COc1cc2nn([C@H]3CC[C@H](CCN4CCC5(CC4)OCc4cc(C6CCC(=O)NC6=O)ccc45)CC3)cc2cc1C(=O)Nc1cccc(C(F)(F)F)n1 (some centres unmarked) [Compound 96],–,–,–,230,97,480,440,"AUC(0-t) [3, 10]: 3640 ng·h/mL; bioavailability [3, 10]: 35.4%; half-life [3, 10]: 14.7 h; Cmax [3, 11]: 239 ng/mL; AUC(0-t) [3, 12]: 2060 ng·h/mL; clearance [3, 12]: 4.59 mL/min/kg; Cmax [3, 13]: 243 ng/mL; Vd [3, 12]: 7.97 L/kg"
CC(C)(O)c1cc2nn([C@H]3CC[C@H](CCN4CCN5c6ccc(C7CCC(=O)NC7=O)cc6OCC5C4)CC3)cc2cc1NC(=O)c1cccc(C(F)(F)F)n1 (some centres unmarked) [Compound 1],–,–,–,1150,91.1,–,–,"DC50 ([1]; read-out: Absolute DC50, 6 h incubation): 610 pM; DC50 ([1]; read-out: Relative DC50, 6 h incubation): 460 pM; AUClast [3, 6]: 82491 ng·h/mL; Cmax [3, 6]: 5153 ng/mL; F% [3, 6]: 93.86%; T1/2 [3, 6]: 8.03 h; AUClast [3, 7]: 12937 ng·h/mL; CL [3, 7]: 0.905 mL/min/kg; Cmax [3, 7]: 1740 ng/mL; Vss [3, 7]: 1.05 L/kg"
CC(C)(O)c1cc2nn(C3CCC(CCN4CCN5c6c(F)cc(NC7CCC(=O)NC7=O)cc6OCC5C4)CC3)cc2cc1NC(=O)c1cccc(C(F)(F)F)n1 (centres unmarked) [Compound 113],89,16800,16100,190,–,–,–,–
CC(C)(O)c1cc2nn([C@H]3CC[C@H](CCN4CCC5(CC4)OC(=O)c4cc(C6CCC(=O)NC6=O)ccc45)CC3)cc2cc1NC(=O)c1cccc(C(F)(F)F)n1 (some centres unmarked) [Compound 93],94,740,930,180,–,–,–,"AUC(0-t) [3, 10]: 9150 ng·h/mL; bioavailability [3, 10]: 29.5%; half-life [3, 10]: 4.19 h; Cmax [3, 11]: 844 ng/mL; AUC(0-t) [3, 12]: 6210 ng·h/mL; clearance [3, 12]: 2.98 mL/min/kg; Cmax [3, 13]: 783 ng/mL; Vd [3, 12]: 0.958 L/kg"
CN1C(=O)C2(CCN(CC[C@H]3CC[C@H](n4cc5cc(NC(=O)c6cccc(C(F)(F)F)n6)c(C(C)(C)O)cc5n4)CC3)CC2)c2ccc(C3CCC(=O)NC3=O)cc21 (some centres unmarked) [Compound 121],92,14000,10800,100,–,–,–,–
CC(C)Oc1cc2nc([C@H]3CC[C@H](CCN4CCC5(CC4)OCc4cc(C6CCC(=O)NC6=O)ccc45)CC3)cn2cc1C(=O)Nc1cnn2cccnc12 (some centres unmarked) [Compound 94],–,–,–,64500,97,3820,3970,–
